# According to publication PMC1570497, “HIV-2 Protease resistance defined in yeast cells” (Retrovirology, 2006):
# Residue numbers refer to the chain shown, from its start. Several values for one entry are separate records, joined by “and”; a condition that tells them apart may be missing. Equal entries are not always repeated.
# Experiments:
# [1] = biological target: T1, HIV-2ROD Protease (wild type) (Human immunodeficiency virus type 2 subtype A, UniProt P04584); experiment: yeast growth rescue assay, HIV-2ROD Protease expressed in BY4741 yeast; type: cell-based; conditions: for Phenotype (transformed yeast) (% cell growth): galactose, wild type ROD Protease; for Phenotype (transformed yeast) (% cell growth) / IC50: 48 h; for IC50isolate/IC50ROD: ROD (reference); for IC50: ROD Protease
# T1 construct: initiator Met (added ATG start codon) (N); expressed in transfected cells; host or cells: Saccharomyces cerevisiae BY4741, pRS316Gal1/10-HIV2PR (galactose-inducible)
# T1 sequence (P04584 514-612 limits assumed): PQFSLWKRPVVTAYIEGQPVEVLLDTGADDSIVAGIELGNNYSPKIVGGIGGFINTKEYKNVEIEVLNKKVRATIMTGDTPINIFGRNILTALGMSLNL
# [2] = biological target: HIV-2 Protease MRT-20 (Human immunodeficiency virus type 2, UniProt P04584, cells depend on it, form not given); experiment: yeast growth rescue assay, Protease from infected individual; type: cell-based; conditions: for Phenotype (transformed yeast) (% cell growth) / IC50: MRT-20 Protease; for IC50isolate/IC50ROD: MRT-20; for IC50: yeast
# HIV-2 Protease MRT-20, sequence (P04584 514-612 limits assumed, stated change not applied): as the sequence (P04584 514-612 limits assumed) above
# [3] = biological target: T2, HIV-2ROD Protease L90M (Human immunodeficiency virus type 2 subtype A, UniProt P04584, L603M); experiment: cell-based; type: cell-based; conditions: for IC50mutant/IC50ROD: L90M
# T2 sequence (P04584 514-612 L603M): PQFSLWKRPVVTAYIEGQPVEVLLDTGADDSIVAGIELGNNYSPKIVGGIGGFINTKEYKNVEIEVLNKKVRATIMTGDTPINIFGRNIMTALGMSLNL
# [4] = biological target: T3, HIV-2ROD Protease L99F (Human immunodeficiency virus type 2 subtype A, UniProt P04584, L612F); experiment: cell-based; conditions: for IC50mutant/IC50ROD: L99F
# T3 construct: contains a Phe codon at position 99 of the HIV-2 Protease, followed by a stop codon; initiator Met (start codon of primer Fwd) (N); expressed in transfected cells; host or cells: Saccharomyces cerevisiae BY4741, pRS316GAL1/10
# T3 sequence (P04584 514-612 L612F): T2 sequence (P04584 514-612 L603M) with M90L, L99F
# [5] = biological target: T4, HIV-2ROD Protease (Human immunodeficiency virus type 2 subtype A, UniProt P04584); type: cell-based
# T4 construct: initiator Met (added ATG start codon) (N); expressed in transfected cells; host or cells: Saccharomyces cerevisiae BY4741, pRS316Gal1/10-HIV2PR (galactose-inducible)
# T4 sequence (P04584 514-612 limits assumed): as the sequence (P04584 514-612 limits assumed) above
# [6] = test system: HIV-2ROD wild type; set-up: method as in previously published data; key: resistant (R); sensitive (S); conditions: ref previously published data; cited from earlier work
# [7] = test system: HIV-2 K45R; set-up: method as in PMID 16464891; key: resistant (R); sensitive (S); conditions: cited from earlier work
# [8] = test system: HIV-2 V20A, I54M; set-up: method as in PMID 16464891; key: resistant (R); sensitive (S); conditions: cited from earlier work
# [9] = test system: Protease from HIV-2ROD; set-up: method as in PMID 16464891, PMID 16327332; conditions: read-out: IC50 already reported in the literature; cited from earlier work
# [10] = biological target: HIV-2 Protease MRT-1 (Human immunodeficiency virus type 2, UniProt P04584, cells depend on it, form not given); experiment: yeast growth rescue assay, Protease from infected individual; conditions: for Phenotype (transformed yeast) (% cell growth) / IC50: MRT-1 Protease; for IC50: yeast
# HIV-2 Protease MRT-1, sequence (P04584 514-612 limits assumed, change not shown): as the sequence (P04584 514-612 limits assumed) above
# [11] = biological target: HIV-2 Protease MRT-7 (Human immunodeficiency virus type 2, UniProt P04584, cells depend on it, form not given); experiment: as above; conditions: for Phenotype (transformed yeast) (% cell growth) / IC50: MRT-7 Protease; for IC50: yeast
# HIV-2 Protease MRT-7, sequence (P04584 514-612 limits assumed, stated change not applied): as the sequence (P04584 514-612 limits assumed) above
# [12] = biological target: HIV-2 Protease MRT-8 (Human immunodeficiency virus 2, UniProt P04584, L603M, cells depend on it, form not given); experiment: as above; conditions: for Phenotype (transformed yeast) (% cell growth) / IC50: MRT-8 Protease; for IC50: yeast
# [13] = biological target: HIV-2 Protease MRT-22 (Human immunodeficiency virus type 2, UniProt P04584, cells depend on it, form not given); experiment: as above; conditions: for Phenotype (transformed yeast) (% cell growth) / IC50: MRT-22 Protease; for IC50isolate/IC50ROD: MRT-22; for IC50: yeast
# HIV-2 Protease MRT-22, sequence (P04584 514-612 limits assumed, change not shown): as the sequence (P04584 514-612 limits assumed) above
# [14] = biological target: HIV-2 Protease MRT-25 (Human immunodeficiency virus type 2, UniProt P04584, cells depend on it, form not given); experiment: as above; conditions: for Phenotype (transformed yeast) (% cell growth) / IC50: MRT-25 Protease; for IC50: yeast
# HIV-2 Protease MRT-25, sequence (P04584 514-612 limits assumed, change not shown): as the sequence (P04584 514-612 limits assumed) above
# [15] = biological target: HIV-2 Protease MRT-29 (Human immunodeficiency virus type 2, UniProt P04584, cells depend on it, form not given); experiment: as above; conditions: for Phenotype (transformed yeast) (% cell growth) / IC50: MRT-29 Protease; for IC50isolate/IC50ROD: MRT-29; for IC50: yeast
# HIV-2 Protease MRT-29, sequence (P04584 514-612 limits assumed, stated change not applied): as the sequence (P04584 514-612 limits assumed) above
# [16] = test system: HIV-2 M76V; set-up: key: resistant (R); sensitive (S); conditions: cited from earlier work
SMILES,IC50isolate/IC50ROD [1],IC50 [1],IC50isolate/IC50ROD [2],IC50 [2],IC50 [3],IC50mutant/IC50ROD [3],IC50 [4],IC50mutant/IC50ROD [4],Phenotype (virus production) [6],Phenotype (virus production) [7],Phenotype (virus production) [8],IC50 [9],IC50 [10],IC50 [11],IC50 [12],IC50isolate/IC50ROD [13],IC50 [13],IC50 [14],IC50isolate/IC50ROD [15],IC50 [15],other results
"Cc1cccc(C)c1OCC(=O)N[C@@H](Cc1ccccc1)[C@@H](O)C[C@H](Cc1ccccc1)NC(=O)[C@H](C(C)C)N1CCCNC1=O [LPV, Lopinavir]",1.00,16.6 ± 2.5 µM,1.40,23.2 ± 4.4 µM,12.5 ± 8.1 µM,0.75,11.1 ± 3.1 µM,0.67,S,R [9],R [9],0.027 µM,48 ± 3.2 µM,10.8 ± 5 µM,12.5 ± 1.5 µM,0.91,15.1 ± 4.3 µM,19.9 ± 4.6 µM,0.84,13.9 ± 5.5 µM,Phenotype (transformed yeast) (% cell growth) ([1]; LPV at 150 μM): 91.5% and 91.5+/-1.2%; Phenotype (transformed yeast) (% cell growth) ([2]; LPV at 150 μM): 71.5+/-1.2%; growth in galactose ([5]; 60 μM LPV): grew in galactose; Phenotype (transformed yeast) (% cell growth) ([10]; LPV at 150 μM): 50.0+/-3.0%; Phenotype (transformed yeast) (% cell growth) ([11]; LPV at 150 μM): 100.0+/-4.7%; Phenotype (transformed yeast) (% cell growth) ([12]; LPV at 150 μM): 82.0+/-7.5%; Phenotype (transformed yeast) (% cell growth) ([13]; LPV at 150 μM): 98.5+/-1.0%; Phenotype (transformed yeast) (% cell growth) ([14]; LPV at 150 μM): 100.0+/-2.0%; IC50isolate/IC50ROD ([14]; MRT-25): 1.20; Phenotype (transformed yeast) (% cell growth) ([15]; LPV at 150 μM): 93.0+/-2.0%
"CC(C)(C)NC(=O)[C@@H]1C[C@@H]2CCCC[C@@H]2CN1C[C@@H](O)[C@H](Cc1ccccc1)NC(=O)[C@H](CC(N)=O)NC(=O)c1ccc2ccccc2n1 [SQV, Saquinavir]",1.00,150 ± 7.2 µM,0.79,118 ± 6.3 µM,554.1 ± 3.9 µM,3.7,147 ± 5.1 µM,0.98,S,R [9],R [9],0.011 µM,200 ± 5.1 µM,68.9 ± 6.2 µM,553.9 ± 4.2 µM,0.70,105 ± 7.1 µM,48.5 ± 4.7 µM,1.02,153 ± 3 µM,"Phenotype (transformed yeast) (% cell growth) ([1]; SQV at 1mM): 75% and 75.0+/-7.0%; Phenotype (transformed yeast) (% cell growth) ([2]; SQV at 1mM): 78.0+/-3.0%; growth on galactose plates (lethal phenotype) ([5]; SQV at 200 μM, 2 days at 30°C): the lethal phenotype was no longer observed; Phenotype (virus production) [16]: R [10]; IC50isolate/IC50ROD ([10]; MRT-1): 1.34; Phenotype (transformed yeast) (% cell growth) ([10]; SQV at 1mM): 71.0+/-5%; IC50isolate/IC50ROD ([11]; MRT-7): 0.46; Phenotype (transformed yeast) (% cell growth) ([11]; SQV at 1mM): 98.0+/-6%; IC50isolate/IC50ROD ([12]; MRT-8): 4.2 and 4.23; Phenotype (transformed yeast) (% cell growth) ([12]; SQV at 1mM, 1000 µM): 55% and 55.0+/-6.3%; Phenotype (transformed yeast) (% cell growth) ([13]; SQV at 1mM): 82.0+/-7.1%; Phenotype (transformed yeast) (% cell growth) ([14]; SQV at 1mM): 100.0+/-9.4%; Phenotype (transformed yeast) (% cell growth) ([15]; SQV at 1mM): 72.0+/-3.0%"
